Results reported in patent publication US20260251650A1, “LATERAL FLOW DEVICE FOR […]'S DISEASE USING THE T14 PEPTIDE” (Neuro-Bio Ltd, priority 2022, published 2026).

Tests used:
[1] = test system: anti-T14 antibody 40 nm gold conjugates; assay: Inhibition lateral flow test (half dipstick), peptide dotted on membrane; assay type: binding, rabbit; settings: peptide dotted at 1, 0.5 and 0.25 mg/ml on CN180 membrane, FIG. 10
Experimental: (§1) The detector reagent was a 40 nm gold particle which is passively conjugated to the antibodies. Conjugates were prepared for: AB16 (rabbit polyclonal), AB117 (rabbit monoclonal) and AB104 (rabbit monoclonal).
(§2) In this format, a gold conjugate is in liquid form (in the well) rather than dry enabling high throughput of the test conditions. The test line is “dotted” onto the membrane by pipette to facilitate evaluation of a range of conditions.
The nitrocellulose membrane was CN180.
(§3) • A) Inhibition Assay: T14 peptide • T30 peptide • B) Sandwich Assay: Rabbit polyclonal, AB16 • Rabbit monoclonal, AB117 • Rabbit monoclonal, AB104 • Rabbit monoclonal, AB102
Peptide (T14 or T30) was diluted to 1, 0.5 and 0.25 mg/ml in deionised water. The peptide was “dotted” onto CN180 nitrocellulose membrane (1 μl at each concentration) and the membrane dried for 15 minutes at 37° C. The goat anti-rabbit antibody was applied to the membrane as a control line.
• (i) 20 μl gold conjugate (neat) and 20 μl TBST (Tris buffered saline 1% Tween 20) added to Well 1; • (ii) The dipstick was added to Well 1; • (iii) The dipstick was run to completion (no liquid remaining); and • (iv) The dipstick was added to Well 2 containing 20 μl TBST only to wash the test strip.

[2] = test system: anti-T14 antibodies (conjugate and test line); assay: Sandwich lateral flow test (half dipstick), peptide detection; assay type: binding, rabbit; settings: peptide at 0.1 mg/ml, FIG. 11
Experimental: as §1, §2, §3
Each antibody was “dotted” onto CN180 membrane (1 μl neat, i.e. 1 mg/ml, concentration) and the membrane dried for 15 mins at 37° C. The goat anti-rabbit antibody was applied to the membrane as a control line. Conjugate and test line antibody combinations were then evaluated in a matrix study in the lateral flow format.
• (i) 10 μl peptide (either T14 or T30 at 0.1 mg/ml) and 10 μl TBST (Tris buffered saline 1% Tween 20) added to Well 1; • (ii) The dipstick was added to Well 1; • (iii) The dipstick was run to completion (no liquid remaining); • (iv) The dipstick was added to Well 2 containing 20 μl conjugate; • (v) The dipstick was run to completion (no liquid remaining); and • (vi) The dipstick was added to Well 3 containing 20 μl TBST.

Sequence: AEFHRWSSYMVHWK (listed as Homo sapiens) [T14, 14 amino acid peptide derived from the C-terminus of acetylcholinesterase; biomarker]
- detection of peptide by inhibition LFT [1]: able to detect
- detection of peptide by sandwich LFT [2]: able to detect

Sequence: KAEFHRWSSYMVHWKNQFDHYSKQDRCSDL (KAEFHRWSSYMVHWKNQFHDYSKQDRCSDL; listed as Homo sapiens) [T30, last 30 amino acid residues of tailed acetylcholinesterase]
- detection of peptide by inhibition LFT [1]: able to detect
- detection of peptide by sandwich LFT [2]: able to detect
